The record followed here is PubChem BioAssay AID248 (DTP/NCI, 2004).

Toxic doses and inconclusive results are not listed.

In the experiment the test system is L1210 leukemia ip in BDF1 mice, survival T/C. In words: NCI In Vivo Anticancer Drug Screen. Data for tumor model L1210 Leukemia (intraperitoneal) in B6D2F1 (BDF1) mice. Particulars: endpoint: mean survival time, higher = longer survival. Put shortly:
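Tumor cells were implanted, animals were treated, and survival was followed. The result divides the treated measurement by the vehicle-control measurement.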

The mark [1] stands for this setting: dose: 6.25 mg/kg/injection, schedule: Q01DX009 (ip), vehicle: saline with Tween-80.
The mark [2] stands for this setting: dose: 12.5 mg/kg/injection, schedule: Q01DX009 (ip), vehicle: saline with Tween-80.
Setting [3] is: dose: 25.0 mg/kg/injection, schedule: Q01DX009 (ip), vehicle: saline with Tween-80.
The mark [4] stands for this setting: dose: 100.0 mg/kg/injection, schedule: Q01DX009 (ip), vehicle: saline with Tween-80.
[5] abbreviates: dose: 200.0 mg/kg/injection, schedule: Q01DX009 (ip), vehicle: saline with Tween-80.
[6] abbreviates: dose: 100.0 mg/kg/injection, schedule: Q01DX009 (ip), vehicle: Klucel (hydroxypropylcellulose) (HPC).
The mark [7] stands for this setting: dose: 100.0 mg/kg/injection, schedule: Q04DX003 (ip), vehicle: Klucel (hydroxypropylcellulose) (HPC).
Where [8] appears, read: dose: 200.0 mg/kg/injection, schedule: Q01DX009 (ip), vehicle: Klucel (hydroxypropylcellulose) (HPC).
Setting [9] is: dose: 200.0 mg/kg/injection, schedule: Q04DX003 (ip), vehicle: Klucel (hydroxypropylcellulose) (HPC).
Setting [10] is: dose: 400.0 mg/kg/injection, schedule: Q01DX009 (ip), vehicle: Klucel (hydroxypropylcellulose) (HPC).
[11] abbreviates: dose: 400.0 mg/kg/injection, schedule: Q04DX003 (ip), vehicle: Klucel (hydroxypropylcellulose) (HPC).
[12] abbreviates: dose: 100.0 mg/kg/injection, schedule: Q04DX003 (ip), vehicle: saline with Tween-80.
The mark [13] stands for this setting: dose: 200.0 mg/kg/injection, schedule: Q04DX003 (ip), vehicle: saline with Tween-80.
[14] abbreviates: dose: 100.0 mg/kg/injection, schedule: Q01DX001 (ip), vehicle: carboxymethylcellulose (CMC).
Setting [15] is: dose: 200.0 mg/kg/injection, schedule: Q01DX001 (ip), vehicle: carboxymethylcellulose (CMC).
The mark [16] stands for this setting: dose: 400.0 mg/kg/injection, schedule: Q01DX001 (ip), vehicle: carboxymethylcellulose (CMC).

As for `Cn1c2nc(=O)n(-c3ccccc3)c(=O)c-2nc2c1CCCC2`, the T/C reads like this: under setting [1], 110 % of control; under setting [2], 106 % of control; under setting [3], 101 % of control; (dose: 50.0 mg/kg/injection, schedule: Q01DX009 (ip), vehicle: saline with Tween-80) 103 % of control; under setting [4], 105 % of control; under setting [5], 100 % of control.
For `O=C(Nc1ccccc1)Nc1ccc(Cl)c(Cl)c1`, the T/C is 95 % of control (dose: 100.0 mg/kg/injection, schedule: Q01DX001 (ip), vehicle: saline with Tween-80); 101 % of control under setting [6]; 107 % of control under setting [7]; 97 % of control (dose: 200.0 mg/kg/injection, schedule: Q01DX001 (ip), vehicle: saline with Tween-80); 94 % of control under setting [8]; 89 % of control under setting [9]. For the same molecule, the T/C (dose: 400.0 mg/kg/injection, schedule: Q01DX001 (ip), vehicle: saline with Tween-80) is 90 % of control; the T/C under setting [10] is 95 % of control; the T/C under setting [11] is 86 % of control.
With `COc1cc(OC)c(NC(=O)c2cc3ccccc3cc2O)cc1Cl`, the T/C was 96 % of control under setting [6]; 101 % of control under setting [7]; 101 % of control under setting [8]; 101 % of control under setting [9]; 96 % of control under setting [10]; 111 % of control under setting [11].
With `COc1ccc(CCC2=NCCN2)cc1OC`, the T/C by setting is: under setting [12], 103 % of control; under setting [13], 97 % of control.
As to `COC(=O)c1cc(C)cc(OC(=S)N(C)C)c1C`, the T/C under setting [14] is 96 % of control; the T/C (dose: 100.0 mg/kg/injection, schedule: Q01DX009 (ip), vehicle: carboxymethylcellulose (CMC)) is 103 % of control; the T/C under setting [15] was 93 % of control; the T/C (dose: 200.0 mg/kg/injection, schedule: Q01DX009 (ip), vehicle: carboxymethylcellulose (CMC)) is 98 % of control; the T/C under setting [16] was 96 % of control; the T/C (dose: 400.0 mg/kg/injection, schedule: Q01DX009 (ip), vehicle: carboxymethylcellulose (CMC)) was 93 % of control. For the setting “dose: 800.0 mg/kg/injection, schedule: Q01DX009 (ip), vehicle: carboxymethylcellulose (CMC)”, the T/C is 103 % of control.
`CC(C)(O)CNS(=O)(=O)c1ccc(Br)cc1`: the T/C under setting [6] is 105 % of control and the T/C under setting [8] is 101 % of control.
Consider `O=NN(CCCl)C(=O)N[C@H]1CCCC[C@H]1O`, for which the T/C reads like this: (dose: 12.0 mg/kg/injection, schedule: Q01DX001 (ip), vehicle: saline with Tween-80) 176 % of control; (dose: 18.0 mg/kg/injection, schedule: Q01DX001 (ip), vehicle: saline with Tween-80) 301 % of control; (dose: 26.0 mg/kg/injection, schedule: Q01DX001 (ip), vehicle: saline with Tween-80) 443 % of control; (dose: 40.0 mg/kg/injection, schedule: Q01DX001 (ip), vehicle: saline with Tween-80) 442 % of control; (dose: 60.0 mg/kg/injection, schedule: Q01DX001 (ip), vehicle: saline with Tween-80) 205 % of control.
In the case of `O=C(Cc1cccc2ccccc12)N/N=C/c1cccc([N+](=O)[O-])c1`, the T/C was 88 % of control under setting [6]; 93 % of control (dose: 100.0 mg/kg/injection, schedule: Q04DX002 (ip), vehicle: Klucel (hydroxypropylcellulose) (HPC)); 93 % of control under setting [8]; 89 % of control (dose: 200.0 mg/kg/injection, schedule: Q04DX002 (ip), vehicle: Klucel (hydroxypropylcellulose) (HPC)); 96 % of control (dose: 400.0 mg/kg/injection, schedule: Q04DX002 (ip), vehicle: Klucel (hydroxypropylcellulose) (HPC)).
For the molecule `O=[N+]([O-])c1cc(S(=O)(=O)c2ccc(Nc3ccccc3)c([N+](=O)[O-])c2)ccc1Nc1ccccc1`, the T/C is 93 % of control (dose: 100.0 mg/kg/injection, schedule: Q04DX002 (ip), vehicle: gum acacia); 103 % of control (dose: 200.0 mg/kg/injection, schedule: Q04DX002 (ip), vehicle: gum acacia); 97 % of control (dose: 400.0 mg/kg/injection, schedule: Q04DX002 (ip), vehicle: gum acacia).
Consider `C/C=C/P(=O)(c1ccccc1)c1ccccc1`, for which the T/C (dose: 50.0 mg/kg/injection, schedule: Q01DX001 (ip), vehicle: saline) is 110 % of control; the T/C (dose: 100.0 mg/kg/injection, schedule: Q01DX001 (ip), vehicle: saline) is 110 % of control; the T/C (dose: 200.0 mg/kg/injection, schedule: Q01DX001 (ip), vehicle: saline) was 95 % of control; the T/C (dose: 400.0 mg/kg/injection, schedule: Q01DX001 (ip), vehicle: saline) is 104 % of control.
Take `COCCCNP(=S)(N1CC1)N1CC1`: the T/C (dose: 2.0 mg/kg/injection, schedule: Q01DX Z (ip), vehicle: saline) was 92 % of control and the T/C (dose: 4.0 mg/kg/injection, schedule: Q01DX Z (ip), vehicle: saline) is 116 % of control.
For `CCCCCCCCCCCCNC(=O)C[n+]1ccc(C(N)=O)cc1`, for the setting “dose: 100.0 mg/kg/injection, schedule: Q04DX003 (ip), vehicle: saline”, the T/C is 94 % of control.
In the case of `C=C1CC2(OC1=O)C(=O)N(C)c1ccc(I)cc12` (stereo not given), the T/C was 101 % of control (dose: 25.0 mg/kg/injection, schedule: Q04DX002 (ip), vehicle: saline with Tween-80); 97 % of control (dose: 50.0 mg/kg/injection, schedule: Q04DX002 (ip), vehicle: saline with Tween-80); 102 % of control (dose: 100.0 mg/kg/injection, schedule: Q04DX002 (ip), vehicle: saline with Tween-80).
Consider `COC(=O)c1ccccc1NC(=O)Nc1cc(OC)ccc1OC`, for which the T/C was 98 % of control under setting [6], 102 % of control under setting [8] and 93 % of control under setting [10].
Consider `OCC1C2CCC(CC2)C1CO` (stereo not given), for which the T/C was 102 % of control (dose: 12.5 mg/kg/injection, schedule: Q01DX009 (ip), vehicle: saline); 97 % of control (dose: 12.5 mg/kg/injection, schedule: Q04DX003 (ip), vehicle: saline with Tween-80); 106 % of control (dose: 25.0 mg/kg/injection, schedule: Q01DX009 (ip), vehicle: saline); 94 % of control (dose: 25.0 mg/kg/injection, schedule: Q04DX003 (ip), vehicle: saline with Tween-80); 102 % of control (dose: 50.0 mg/kg/injection, schedule: Q04DX003 (ip), vehicle: saline with Tween-80); 96 % of control under setting [12]. For the same molecule, the T/C is, setting by setting: under setting [13], 93 % of control; (dose: 400.0 mg/kg/injection, schedule: Q04DX003 (ip), vehicle: saline with Tween-80) 102 % of control.
As to `COC(=O)CCCCC(=O)OC`, the T/C is, setting by setting: under setting [4], 103 % of control; under setting [5], 102 % of control; (dose: 400.0 mg/kg/injection, schedule: Q01DX009 (ip), vehicle: saline with Tween-80) 102 % of control.
For the molecule `CCCCN(C)/N=N/c1nc[nH]c1C(=O)NN`, the T/C (dose: 50.0 mg/kg/injection, schedule: Q01DX001 (ip), vehicle: carboxymethylcellulose (CMC)) is 104 % of control; the T/C under setting [14] was 104 % of control; the T/C under setting [15] was 101 % of control; the T/C under setting [16] is 119 % of control.
`N#C/C(=C\c1ccco1)c1ccc([N+](=O)[O-])cc1`: the T/C by setting is: under setting [1], 90 % of control; under setting [2], 90 % of control; under setting [3], 95 % of control.
For `COc1ccc(N(Cc2ccccc2)c2nn[nH]n2)cc1`, the T/C is, setting by setting: under setting [7], 93 % of control; under setting [9], 90 % of control; under setting [11], 97 % of control.
In the case of `CCO[Si](CC)(CC)CC`, the T/C is, setting by setting: (dose: 100.0 mg/kg/injection, schedule: Q01DX009 (ip), vehicle: saline) 100 % of control; (dose: 200.0 mg/kg/injection, schedule: Q01DX009 (ip), vehicle: saline) 98 % of control; (dose: 400.0 mg/kg/injection, schedule: Q01DX009 (ip), vehicle: saline) 102 % of control.
With `Cc1cc(Cl)ccc1NC(=O)Nc1ccccc1F`, the T/C by setting is: under setting [6], 100 % of control; under setting [8], 96 % of control; under setting [10], 94 % of control.
